From ChEMBL document CHEMBL1201862, “PubChem BioAssay data set” (2004)
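96-well plates; 48 h exposure; 5 concentrations. Endpoints by linear interpolation between flanking doses. Not reached: highest tested concentration assigned. GI50 = concentration required for 50% inhibition of growth.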 The source made the active and inactive calls. Cut-off read from the data, not from the text of the source: active = GI50 up to about 1.1 µM and inactive = higher.

Tests used:
Test in all cases: inhibition of tumour cell growth, NCI panel, 48 h
DU-145 = system: DU-145
HCC 2998 = system: HCC 2998
HCT-15 = system: HCT-15
HT-29 = system: HT-29
Hs-578T = system: Hs-578T
K562 = system: K562
M14 = system: M14
Malme-3M = system: Malme-3M
NCI/ADR-RES = system: NCI/ADR-RES
OVCAR-5 = system: OVCAR-5
OVCAR-8 = system: OVCAR-8
SF-268 = system: SF-268
SF-295 = system: SF-295
SK-MEL-28 = system: SK-MEL-28
SK-MEL-5 = system: SK-MEL-5
SK-OV-3 = system: SK-OV-3
UACC-62 = system: UACC-62
NCI-H522 = system: NCI-H522
SK-MEL-2 = system: SK-MEL-2

Row | SMILES | GI50 (DU-145) | GI50 (HCC 2998) | GI50 (HCT-15) | GI50 (HT-29) | GI50 (Hs-578T) | GI50 (K562) | GI50 (M14) | GI50 (Malme-3M) | GI50 (NCI/ADR-RES) | GI50 (OVCAR-5) | GI50 (OVCAR-8) | GI50 (SF-268) | GI50 (SF-295) | GI50 (SK-MEL-28) | GI50 (SK-MEL-5) | GI50 (SK-OV-3) | GI50 (UACC-62) | GI50 (NCI-H522) | GI50 (SK-MEL-2)
1 | O=C(C(=O)c1cc(-c2ccccc2)nc2ccc3ccccc3c12)c1ccccc1 | > 100 µM (inactive) | > 100 µM (inactive) | 75 µM | > 100 µM (inactive) | 20.7 µM (inactive) | 18.5 µM (inactive) | 67.5 µM (inactive) | 27.8 µM (inactive) | 97.7 µM (inactive) | > 100 µM (inactive) | 61.2 µM (inactive) | 20.8 µM (inactive) | 52.5 µM (inactive) | 28.6 µM (inactive) | 60.1 µM (inactive) | 46.7 µM (inactive) | 38.8 µM (inactive) |  | 
2 | CN(Cc1cc(Cl)cc(Cl)c1)CC(C(=O)c1ccccc1)c1ccccc1 (centres undefined) | 4.69 µM (inactive) |  | 0.368 µM | 1.12 µM (active) | 3.15 µM (inactive) | 0.962 µM (active) | 2.98 µM (inactive) | 8 µM (inactive) | 1.57 µM (inactive) | 6.21 µM (inactive) | 4.2 µM (inactive) | 13.7 µM (inactive) | 27 µM (inactive) | 2.9 µM (inactive) | 10.5 µM (inactive) | 10.6 µM (inactive) | 2.9 µM (inactive) | 1.54 µM (inactive) | 10.2 µM (inactive)
3 | Cc1cc2c(c(/C=N/Cc3ccccc3)c1)OC1(C=C2)Oc2ccccc2C(=O)N1C (centres undefined) | 25.4 µM (inactive) | 27.1 µM (inactive) | 19.6 µM | 21.6 µM (inactive) | 18.3 µM (inactive) | 14.1 µM (inactive) | 23.2 µM (inactive) |  | 20.2 µM (inactive) | 21.4 µM (inactive) | 16.5 µM (inactive) | 21.8 µM (inactive) | 29.6 µM (inactive) | 29.8 µM (inactive) | 19.9 µM (inactive) | 37.5 µM (inactive) | 22.4 µM (inactive) |  | 24.9 µM (inactive)
4 | c1ccc(/N=C(\N2CCCC2)N(CCN2CCCC2)c2ccccc2)cc1 | > 10 µM (inactive) |  | 22.1 µM | 1.84 µM (inactive) | 18.9 µM (inactive) | 3.8 µM (inactive) | 8.34 µM (inactive) | > 100 µM (inactive) | 37 µM (inactive) | 29.6 µM (inactive) | 24.4 µM (inactive) | > 10 µM (inactive) | 6.32 µM (inactive) | > 100 µM (inactive) | 12.2 µM (inactive) | 63.4 µM (inactive) | 16.6 µM (inactive) | 11.3 µM (inactive) | 64.9 µM (inactive)
5 | COc1ccccc1N1C(=O)CSC1c1c[nH]c2ccccc12 (centres undefined) | > 100 µM (inactive) | > 100 µM (inactive) | > 100 µM | > 100 µM (inactive) | > 100 µM (inactive) | > 100 µM (inactive) | > 100 µM (inactive) |  | > 100 µM (inactive) | > 100 µM (inactive) | > 100 µM (inactive) | 42.8 µM (inactive) | > 100 µM (inactive) | 66.7 µM (inactive) | > 100 µM (inactive) | > 100 µM (inactive) | > 100 µM (inactive) |  | > 100 µM (inactive)
6 | CC1(C)CC(=O)C2=C(C1)NC1=C(C2)C(=O)CC(C)(C)C1 | > 100 µM (inactive) | > 100 µM (inactive) | > 100 µM | > 100 µM (inactive) | > 100 µM (inactive) | > 100 µM (inactive) | > 100 µM (inactive) | > 100 µM (inactive) | > 100 µM (inactive) | > 100 µM (inactive) | > 100 µM (inactive) | > 100 µM (inactive) | > 100 µM (inactive) | > 100 µM (inactive) | > 100 µM (inactive) | > 100 µM (inactive) | > 100 µM (inactive) |  | 
